# Measurements reported in patent US20260217653A1, “CRYSTALLINE COMPOUND OF AN LPAR1 ANTAGONIST” (CONTINEUM THERAPEUTICS, INC., priority 2023, published 2026).
# pIC50: −log10 of the molar value. “Also recorded” adds a separate entry of the source.
# Columns and labels:
# human LPAR1 = target: T1, human LPAR1 (Homo sapiens, UniProt Q92633); experiment: In vitro functional assay of lysophosphatidic acid receptor 1 activity (calcium flux, Fluo-4 NW, LPA 18:1 at EC80); format: cell-based; conditions: B103 cells stably expressing human LPAR1
# T1 construct: by own knowledge a rat neuroblastoma line
# Description: Primary compound plates were prepared in 100% DMSO (Sigma-Aldrich), secondary compound plates were prepared at 10× concentration in DMEM (Invitrogen), and tertiary compound plates were prepared at 3× concentration in assay buffer containing HBSS (no Ca^+2/Mg^−2. Invitrogen) and 0.1% BSA (Sigma-Aldrich). Fluo-4 NW calcium assay dye (Invitrogen) was prepared as per manufacturer's recommendations in assay buffer. B103 cells stably expressing human LPAR1 (J. Chun lab, UCSD) were grown to confluency in DMEM media (Invitrogen) containing 10% FBS (ATCC), […] (Sigma-Aldrich) and […] (Sigma-Aldrich), and detached with Accutase (Sigma-Aldrich) prior to assay. The freshly detached cells were resuspended in growth media and plated in black, clear-bottom 96-well plates (Costar) containing compound (i.e., secondary compound plate) at a density of 5×10^4 cells/well. Once plated, cells were left at room temperature for 30 minutes and then transferred to a 37° C. 5% CO2 incubator for 24 hours. […] Finally, lysophosphatidic acid (18:1) at the EC80 concentration was added and calcium flux measured using FlexStation 3 (Molecular Devices). Sigmoidal dose-response curves were generated by measuring […] over 45 sec and calculating the area under the curve. […]
# [1] = Dry grinding simulation experiments (mortar and pestle, XRPD); format: physicochemical
# Description: Feasibility of formulation process for Pattern A was evaluated by compression, grinding, and granulation simulation experiments. […] About 20 mg of Pattern A crystalline polymorph was ground manually with a mortar and pestle for 1, 3, and 5 min. Potential form change and degree of crystallinity were evaluated by XRPD.
# [2] = Bulk stability of Pattern A (XRPD, HPLC, color) after 1 week storage; format: physicochemical; conditions: for Bulk (XRPD) form after storage / Color after storage / Bulk (HPLC) purity after storage: Solid state, 1 week; for Bulk (HPLC) purity after storage: initial purity 99.9%
# Description: Bulk stability of Pattern A was evaluated at 25° C./92% RH in an open container, at 40° C./75% RH in an open container, and at 60° C. in a tight container over 1 week. […] Pattern A crystalline polymorph was placed at 25° C./92% RH in an open container, at 40° C./75% RH in an open container, and at 60° C. in a closed container for 1 week. Samples after the stress were characterized by XRPD and HPLC and inspected for color change.
# [3] = Wet granulation simulation experiments (XRPD); format: physicochemical
# Description: Feasibility of formulation process for Pattern A was evaluated by compression, grinding, and granulation simulation experiments. […] Water or ethanol was added drop wise to about 20 mg of Pattern A crystalline polymorph until the sample was wetted sufficiently. Wet sample was ground gently with a mortar and pestle. Post granulation sample was dried under ambient condition for 3 min. Potential form change and degree of crystallinity were evaluated by XRPD.
# [4] = Water sorption and desorption (hygroscopicity) by dynamic vapor sorption (DVS); format: physicochemical; conditions: 25° C.
# Description: Hygroscopicity of Pattern A was evaluated by dynamic vapor sorption (DVS) test at 25° C. with a cycle of 40→0→95→0→40% RH at a rate of change in mass per time unit of 0.002% per minute. […] It absorbed about 1.2% water at 80% RH and 3.1% water at 95% RH at 25° C. (FIG. 8). […] Water sorption and desorption behavior of Pattern A crystalline polymorph was investigated by DVS at 25° C. with a cycle of 40-0-95-0-40% RH, dm/dt 0.002, minimum equilibration time 60 min, and maximum equilibration time 360 min. XRPD was measured after the DVS test to determine form change.
# [5] = Compression simulation experiments (hydraulic press, XRPD); format: physicochemical; conditions: for Comments (crystallinity after compression) / XRPD after compression: 5 minutes
# Description: Feasibility of formulation process for Pattern A was evaluated by compression, grinding, and granulation simulation experiments. […] About 10 mg of Pattern A crystalline polymorph was compressed for 5 minutes under 5 MPa and 10 MPa with a hydraulic press. Potential form change and degree of crystallinity were evaluated by XRPD.
# [6] = grinding time 1 min, mortar and pestle
# T1 sequence (Q92633 whole entry): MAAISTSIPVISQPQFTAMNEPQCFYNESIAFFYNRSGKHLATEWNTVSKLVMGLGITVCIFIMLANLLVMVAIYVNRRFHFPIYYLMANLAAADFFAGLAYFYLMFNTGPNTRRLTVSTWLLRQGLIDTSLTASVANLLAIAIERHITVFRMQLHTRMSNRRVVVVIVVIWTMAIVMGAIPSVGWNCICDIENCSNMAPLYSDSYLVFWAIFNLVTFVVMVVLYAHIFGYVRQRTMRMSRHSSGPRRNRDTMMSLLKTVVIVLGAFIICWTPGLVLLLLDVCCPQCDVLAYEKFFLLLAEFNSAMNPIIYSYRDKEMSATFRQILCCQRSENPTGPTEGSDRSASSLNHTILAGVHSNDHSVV
structure (smiles),measurement,setting,value
COc1ccc(NC(=O)N(c2ccccc2C(C)C)[C@H]2CC[C@H](C(=O)O)CC2)c(OC(F)F)n1 [trans-4-(3-(2-(difluoromethoxy)-6-methoxypyridin-3-yl)-1-(2-isopropylphenyl)ureido)cyclohexane-1-carboxylic acid],pIC50,human LPAR1,8.00
"COc1ccc(NC(=O)N(c2ccccc2C(C)C)[C@H]2CC[C@H](C(=O)O)CC2)c(OC(F)F)n1 [Pattern A, trans-4-(3-(2-(difluoromethoxy)-6-methoxypyridin-3-yl)-1-(2-isopropylphenyl)ureido)cyclohexane-1-carboxylic acid]",Form after manual grinding,[1]; after 3 minutes of grinding with a mortar and pestle,converted to practically amorphous form
same,Comments (crystallinity after dry grinding),[1]; [6],Peaks becoming broader; also recorded: Partial amorphization
same,XRPD after dry grinding,[1]; [6],Pattern A
same,XRPD after dry grinding,"[1]; grinding time 3 min, mortar and pestle",Almost amorphous
same,XRPD after dry grinding,"[1]; grinding time 5 min, mortar and pestle",Almost amorphous
same,Bulk stability (physical and chemical),"[2]; 25° C./92% RH open container, 40° C./75% RH open container, 60° C. tight container, over 1 week",physically and chemically stable
same,Bulk (XRPD) form after storage,"[2]; 25° C./92% RH, open container",Pattern A (FIG. 7)
same,Color after storage,"[2]; 25° C./92% RH, open container",No change
same,Bulk (HPLC) purity after storage,"[2]; 25° C./92% RH, open container",99.9%
same,Bulk (XRPD) form after storage,"[2]; 40° C./75% RH, open container",Pattern A (FIG. 7)
same,Color after storage,"[2]; 40° C./75% RH, open container",No change
same,Bulk (HPLC) purity after storage,"[2]; 40° C./75% RH, open container",99.9%
same,Bulk (XRPD) form after storage,"[2]; 60° C., tight container",Pattern A (FIG. 7)
same,Color after storage,"[2]; 60° C., tight container",No change
same,Bulk (HPLC) purity after storage,"[2]; 60° C., tight container",99.9%
same,Comments (crystallinity after wet granulation),[3]; granulation solvent ethanol,Peaks becoming broader; also recorded: Partial amorphization; also recorded: Significant decrease in
same,XRPD after wet granulation,[3]; granulation solvent ethanol,Pattern A
same,Comments (crystallinity after wet granulation),[3]; granulation solvent water,Significant decrease in; also recorded: Peaks becoming broader; also recorded: Partial amorphization
same,XRPD after wet granulation,[3]; granulation solvent water,Pattern A
same,Crystallinity/form upon wet granulation,[3]; wet granulation with ethanol or water,partial amorphization was observed
same,1st desorp. Weight % change,[4]; 0% RH,0.03%
same,1st sorp. Weight % change,[4]; 0% RH,0.03%
same,2nd desorp. Weight % change,[4]; 0% RH,0.00%
same,2nd sorp. Weight % change,[4]; 0% RH,0.00%
same,1st desorp. Weight % change,[4]; 10% RH,0.05%
same,1st sorp. Weight % change,[4]; 10% RH,0.05%
same,2nd desorp. Weight % change,[4]; 10% RH,0.02%
same,2nd sorp. Weight % change,[4]; 10% RH,0.02%
same,1st desorp. Weight % change,[4]; 20% RH,0.05%
same,1st sorp. Weight % change,[4]; 20% RH,0.05%
same,2nd desorp. Weight % change,[4]; 20% RH,0.03%
same,2nd sorp. Weight % change,[4]; 20% RH,0.02%
same,1st desorp. Weight % change,[4]; 30% RH,0.06%
same,1st sorp. Weight % change,[4]; 30% RH,0.05%
same,2nd desorp. Weight % change,[4]; 30% RH,0.03%
same,2nd sorp. Weight % change,[4]; 30% RH,0.02%
same,1st desorp. Weight % change,[4]; 40% RH,0.06%
same,1st sorp. Weight % change,[4]; 40% RH,0.05%
same,2nd desorp. Weight % change,[4]; 40% RH,0.04%
same,2nd sorp. Weight % change,[4]; 40% RH,0.03%
same,1st sorp. Weight % change,[4]; 50% RH,0.06%
same,2nd desorp. Weight % change,[4]; 50% RH,0.35%
same,1st sorp. Weight % change,[4]; 60% RH,0.06%
same,2nd desorp. Weight % change,[4]; 60% RH,0.64%
same,1st sorp. Weight % change,[4]; 70% RH,0.07%
same,2nd desorp. Weight % change,[4]; 70% RH,0.84%
same,1st sorp. Weight % change,[4]; 80% RH,1.15%
same,2nd desorp. Weight % change,[4]; 80% RH,1.16%
same,Hygroscopicity,[4]; 80% RH,slightly hygroscopic
same,Water absorbed,[4]; 80% RH,about 1.2%
same,1st sorp. Weight % change,[4]; 90% RH,1.93%
same,2nd desorp. Weight % change,[4]; 90% RH,1.93%
same,1st sorp. Weight % change,[4]; 95% RH,3.06%
same,2nd desorp. Weight % change,[4]; 95% RH,3.06%
same,Hygroscopicity,[4]; 95% RH,hygroscopic
same,Water absorbed,[4]; 95% RH,~3.1%
same,XRPD after DVS test,[4]; after cycle 40-0-95-0-40% RH,still Pattern A; also recorded: No form change (FIG. 9)
same,Comments (crystallinity after compression),[5]; 5 MPa,Slight decrease in crystallinity; also recorded: Peaks becoming broader
same,XRPD after compression,[5]; 5 MPa,Pattern A
same,Comments (crystallinity after compression),[5]; 10 MPa,Slight decrease in crystallinity; also recorded: Peaks becoming broader
same,XRPD after compression,[5]; 10 MPa,Pattern A
same,Crystallinity change upon compression,[5]; compression (5 MPa and 10 MPa),only slight crystallinity decrease
same,Form change upon compression,[5]; compression (5 MPa and 10 MPa),no form change
